The source of these data is patent publication US20090185973A1, “METHODS, COMPOSITIONS, UNIT DOSAGE FORMS, AND KITS FOR PHARMACOLOGIC STRESS TESTING WITH REDUCED SIDE EFFECTS” (ADENOBIO N.V., priority 2008, published 2009).

SMILES strings stand for the structures. “And” between values parts separate entries of the source, which are not always exact repeats. Equal values may be shown once. Read-outs that look alike come from different tables or passages of the source.

One series concerns guinea-pig. The note with it: pretreatment dipyridamole 0.025 mg (n = 5); after 14C-adenosine IV injection; mean; cited from earlier work.
Another series concerns patients. It is filed as in vivo, human. The note with it: for PV Max, individual patients / MV Max, individual patients / MV Min, individual patients / PV Min, individual patients: listed as DIP.
For series [1] the following is noted: cited from earlier work.
For series [2], the system named is patients suffering from ischemic heart disease. The series can be described thus: Transthoracic doppler echocardiography (TTDE) blood flow velocity in LAD, sequential administration (Example 1). Format: in vivo, human. The conditions noted are these: lower doses of dipyridamole (10, 14 and 18 μg/kg). The procedure: In the combined administration, each of the two agents was administered at a dosage lower than its clinically preferred dosage when used as a single agent for myocardial perfusion imaging. Effects were measured using noninvasive transthoracic doppler echocardiography (TTDE).
Primary efficacy end-points were peak and mean diastolic flow velocities (measured as reflecting coronary blood flow values). The secondary end-point was patient tolerance to the procedure. The protocol was designed as follows.
Forty (40) consecutive patients suffering from ischemic heart disease were enrolled. Each patient served as their own control.
[…] Total doses are between about 4-6% of the lowest single-agent total dose of dipyridamole (i.e., 0.56 mg/kg, infused over a total of 4 minutes).
This dose is half the standard single-agent dosage rate of 140 μg/kg/min.

Series [3] has as its system patients with normal coronary reserve. The series can be described thus: Priming dose effect: time to peak and return to baseline, concurrent administration (Example 4). Format: in vivo, human. An excerpt:
As a test, a low priming dose of dipyridamole was combined with the concurrent administration of the two drugs to determine whether the time to peak and the occurrence of near maximal hyperaemia could be accelerated, especially when infusion time is reduced by, for example, one minute.

Another series addresses A2a receptor (Homo sapiens, UniProt P29274). The note with it: in vivo; cited from earlier work.
Where [4] appears, read: DIP dose 28 μg/kg, ADE 140 μg/kg/min.
[5] abbreviates: DIP dose 35 μg/kg, ADE 140 μg/kg/min.
Setting [6] is: DIP dose 40 μg/kg, ADE 140 μg/kg/min.

Chain of A2a receptor (P29274 whole entry): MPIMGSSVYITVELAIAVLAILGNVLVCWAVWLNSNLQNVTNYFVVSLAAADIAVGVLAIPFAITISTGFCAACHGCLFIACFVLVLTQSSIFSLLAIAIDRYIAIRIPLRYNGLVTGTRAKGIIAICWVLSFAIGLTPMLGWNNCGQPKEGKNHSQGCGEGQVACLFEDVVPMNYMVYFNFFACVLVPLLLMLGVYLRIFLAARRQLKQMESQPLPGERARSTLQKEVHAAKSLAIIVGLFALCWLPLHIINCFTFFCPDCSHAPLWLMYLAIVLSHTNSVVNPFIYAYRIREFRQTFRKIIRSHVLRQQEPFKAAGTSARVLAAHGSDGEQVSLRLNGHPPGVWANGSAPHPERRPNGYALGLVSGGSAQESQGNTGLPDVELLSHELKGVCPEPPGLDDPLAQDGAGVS

On to `OCCN(CCO)c1nc(N2CCCCC2)c2nc(N(CCO)CCO)nc(N3CCCCC3)c2n1` [dipyridamole], for which, in the series on guinea-pig, the “14C distribution, Heart” value was 2.1 ± 1.01 percentage of ^14C administered and the “14C distribution, Lungs” value is 71.4 ± 4.9 (p < 0.05) percentage of ^14C administered. Further, in the series with patients (DIP dose 28 μg/kg bolus alone, ADE 140 μg/kg/min 3 min), the “PV Max, individual patient” value was 26 cm/sec. Moreover, in the series with patients (setting [4]), the “MV Max, individual patient” value was determined as 21 cm/s; the “MV Min, individual patient” value was 19 cm/s; the “PV Min, individual patient” value is given as 23 cm/sec. In addition, in the series with patients (DIP dose 35 μg/kg bolus alone, ADE 140 μg/kg/min 3 min), the “PV Max, individual patients” value was 23 cm/sec and 40 cm/sec. For the same molecule, in the series on patients (setting [5]), the “MV Max, individual patients” value was 20 cm/s and 28 cm/s; the “MV Min, individual patients” value was 18 cm/s and 22 cm/s; the “PV Min, individual patients” value is 21 cm/sec and 30 cm/sec. Moreover, the “PV Max, individual patients” value in the series with patients (DIP dose 40 μg/kg bolus alone, ADE 140 μg/kg/min 3 min) was 35 cm/sec and 40 cm/sec. Further, in the series with patients (setting [6]), the “MV Max, individual patients” value was 25 cm/s and 29 cm/s; the “MV Min, individual patients” value was 23 cm/s and 24 cm/s; the “PV Min, individual patients” value was 33 cm/sec and 34 cm/sec. Besides, the “Effect on peak and mean diastolic velocities” value in the series on patients (dipyridamole alone, bolus 28, 35 or 40 μg/kg) is listed as “did not modify”. In addition, the “Symptoms recorded during a follow-up of 10 minutes” value in the series with patients (in vivo) is recorded as “No symptoms”. Also, the Solubility in saline result in series [1] (saline) is “poorly soluble”. Further, the “Stability in the long term” value in series [1] (solvents at pH>4) is “unstable”. For the same molecule, in series [2], the “Effect in preliminary dose ranging studies” value is recorded as “no effect”. The “Effect of priming dose on time to peak” value in series [3] (dipyridamole priming dose 0.05 mg, 3 patients) is “did not modify”. Further, the “Effect of priming dose on time to peak” value in series [3] (dipyridamole priming dose 0.1 mg) is listed as “did modify”. Moreover, the “Effect of priming dose on time to peak” value in series [3] (dipyridamole priming dose 0.3 mg, 3 patients) is “did not perform better than 0.1 mg”.

Consider `Nc1nc(N/N=C/C2CCCCC2)nc2c1ncn2[C@@H]1O[C@H](CO)[C@@H](O)[C@H]1O` [binodenoson], for which the Duration of action at A2a receptor is 10 ± 6 min.
